Publication PMC12498190, “A Photocaged N‐Phosphonopiperidinone as a Selective Photo‐Cleavable DPP8/9 Inhibitor” (Chembiochem, 2025)

Columns and labels:
DPP9 [1] = biological target: T1, DPP9 (Homo sapiens, UniProt Q86TI2); experiment: In situ competitive ABPP in HEK293 cell culture, 100 kDa band; format: cell-based; parameters: endogenous in cells; host or cells: HEK293 (Cytion, Germany, 300192); settings: pre-incubation 1 h with 20 µM or 10 µM (method), 10 µM 2 for 1 h, light 5 min
Protocol: Figure 2 Competitive ABPP with photo‐cleavable inhibitor 5 in HEK293 cells. A) Schematic overview of a competitive ABPP experiment. A proteome is pre‐incubated with a competitor, followed by a labeling reaction with an activity‐based probe (ABP). In the case of a photocaged inhibitor, the active compound can be released via irradiation. Target proteins of the competitor cannot be bound by the ABP, resulting in an absence of the respective protein band in‐gel analysis. Created in BioRender. Najdzion, M. (2025) https://BioRender.com/84zn8cb B) Gel‐based competitive ABPP experiment in HEK293 cell lysates with the broadband serine hydrolase ABP ≡FP or the DPP8/9‐directed ABP 2 and the photocaged inhibitor 5, at the indicated concentrations, after or without prior irradiation with green light for 5 min. The corresponding pre‐incubation time for 5 was 30 min. C) Corresponding in situ competitive ABPP experiment in HEK293 cell culture, again with 10 µM 2 for 1 h. […] HEK293 cells were irradiated with a green LED lamp in the presence of 0.5% DMSO for 5 min (‘light’), and cell viability was measured after 24 h. […] For both compounds, cell viability was measured under ‘dark’ (not irradiated) and ‘light’ (irradiated for 5 min with a green LED lamp after the addition of the inhibitor) conditions. […]

DPP9 [2] = biological target: T1, DPP9; experiment: Progress-curve kinetics of covalent DPP9 inhibition (kinact, KI); format: biochemical; parameters: purchased Proteros Biostructures GmbH, Germany; settings: dark
Description: (§1) As previously shown by us, 1 inhibits DPP8 and DPP9 via a covalent modification of the active site serine.^[ [31] ^] Therefore, we also measured the time dependence of this covalent modification of the target enzyme by recording progress curves for the inhibition of DPP8 and 9 and using them to calculate the corresponding binding affinity (KI), maximum enzyme inhibition rate (kinact) as well as the efficiency of covalent bond formation (kinact/KI) values for 5 after and without green light irradiation ( Figure S1 and Table S1, Supporting Information).
(§2) To calculate the reaction rate of covalent bond formation between DPP proteins and the inhibitor, kinact, KI, and kinact/KI were determined as previously described.^[ [49] ^, [50] ^] To this end, a dilution series of 5 was irradiated using a green LED lamp (λ = 520−530 nm; Eurolite, Germany) for 5 min and subsequently mixed with 250 µM GP‐AMC. The mixture was then added to 10 nM enzyme, and the resulting activity was measured for a maximum of 60 min at 30 °C. Fluorescence intensities were plotted against time and data were fitted to the following equation: [drawing 1] using Graph‐Pad Prism v10.4.1. The obtained pseudo first‐order rate constant was used to determine kinact and KI by fitting the plot of kobs against inhibitor concentration to the following equation: [drawing 2] . The efficiency of covalent bond formation (kinact/KI) was calculated by the ratio of kinact/KI. All measurements were performed in triplicate, and error bars represent standard errors of the fit.
(§3) Supplementary Figure 1. Kinetic analysis of DPP8 and DPP9 inhibition by compound 5. The pseudo-first order rate constant (kobs) was calculated from an exponential regression of progress curves and plotted against the concentration of compound 5. All measurement were performed in triplicate (n = 3 technical replicates), mean values are shown and error bars indicate the standard error of the mean (SEM). Inhibition assay was performed with DPP8 (A, B) and DPP9 (C, D) under ‘dark’ (A, C) and ‘light’ (B, D) conditions. […]

human DPP8 = biological target: T2, human DPP8 (Homo sapiens, UniProt Q6V1X1); experiment: Progress-curve kinetics of covalent DPP8 inhibition (kinact, KI); format: biochemical; settings: dark
T2 construct: purchased Proteros Biostructures GmbH, Germany
T2 sequence (Q6V1X1 whole entry): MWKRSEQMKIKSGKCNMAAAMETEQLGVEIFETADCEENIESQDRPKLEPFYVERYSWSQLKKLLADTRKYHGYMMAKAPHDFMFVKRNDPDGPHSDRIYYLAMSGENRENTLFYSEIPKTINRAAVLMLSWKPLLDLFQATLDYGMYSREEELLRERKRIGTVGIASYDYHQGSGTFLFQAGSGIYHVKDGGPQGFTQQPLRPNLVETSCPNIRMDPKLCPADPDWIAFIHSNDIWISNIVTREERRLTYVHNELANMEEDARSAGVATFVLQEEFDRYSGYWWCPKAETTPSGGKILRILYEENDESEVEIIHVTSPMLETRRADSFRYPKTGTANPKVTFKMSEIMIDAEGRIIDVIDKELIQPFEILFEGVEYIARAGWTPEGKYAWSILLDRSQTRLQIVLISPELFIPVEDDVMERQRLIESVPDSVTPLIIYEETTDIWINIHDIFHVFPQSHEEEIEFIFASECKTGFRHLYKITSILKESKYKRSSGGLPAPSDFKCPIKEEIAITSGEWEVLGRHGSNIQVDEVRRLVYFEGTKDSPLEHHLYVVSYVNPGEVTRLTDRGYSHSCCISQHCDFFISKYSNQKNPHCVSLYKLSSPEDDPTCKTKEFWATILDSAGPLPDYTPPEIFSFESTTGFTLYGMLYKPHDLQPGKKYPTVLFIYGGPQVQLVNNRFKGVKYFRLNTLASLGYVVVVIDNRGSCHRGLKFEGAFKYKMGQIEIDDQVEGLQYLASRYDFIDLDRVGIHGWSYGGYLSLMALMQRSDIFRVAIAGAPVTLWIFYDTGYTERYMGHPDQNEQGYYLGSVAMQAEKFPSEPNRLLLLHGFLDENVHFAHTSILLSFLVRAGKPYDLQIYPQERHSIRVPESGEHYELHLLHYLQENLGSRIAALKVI
Description: as §1, §2, §3

T1 sequence (Q86TI2 whole entry): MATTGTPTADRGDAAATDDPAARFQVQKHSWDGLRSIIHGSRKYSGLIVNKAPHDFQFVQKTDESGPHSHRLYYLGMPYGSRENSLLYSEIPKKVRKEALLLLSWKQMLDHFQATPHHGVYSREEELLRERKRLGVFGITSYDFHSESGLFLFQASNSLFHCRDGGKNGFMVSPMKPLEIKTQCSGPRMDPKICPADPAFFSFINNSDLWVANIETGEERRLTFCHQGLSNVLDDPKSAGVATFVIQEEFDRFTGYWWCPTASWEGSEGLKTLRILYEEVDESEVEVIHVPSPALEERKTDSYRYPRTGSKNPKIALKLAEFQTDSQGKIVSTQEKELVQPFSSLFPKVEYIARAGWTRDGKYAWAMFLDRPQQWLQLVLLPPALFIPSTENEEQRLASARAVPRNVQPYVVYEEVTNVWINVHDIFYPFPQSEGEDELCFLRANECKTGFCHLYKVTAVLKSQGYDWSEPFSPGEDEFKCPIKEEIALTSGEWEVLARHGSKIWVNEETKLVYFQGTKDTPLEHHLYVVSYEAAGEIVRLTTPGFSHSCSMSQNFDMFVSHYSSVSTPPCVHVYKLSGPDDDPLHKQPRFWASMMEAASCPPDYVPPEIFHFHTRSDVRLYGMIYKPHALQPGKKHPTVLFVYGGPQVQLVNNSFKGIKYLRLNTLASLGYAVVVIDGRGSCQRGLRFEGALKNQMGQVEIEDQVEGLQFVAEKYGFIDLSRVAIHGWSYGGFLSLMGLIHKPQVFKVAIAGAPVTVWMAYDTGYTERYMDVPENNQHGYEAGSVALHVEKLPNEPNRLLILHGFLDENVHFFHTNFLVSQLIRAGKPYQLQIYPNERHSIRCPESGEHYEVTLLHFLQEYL

CCCCCc1ccc(SCCP(=O)(OCC)N2CCC[C@H](NC(=O)OCC3=C4C(C)=CC(C)=[N+]4[B-](C)(C)n4c(C)cc(C)c43)C2=O)cc1 (stereo partly shown) [Compound 5]
Competition of DPP9 labeling in live cells (in words) (DPP9 [1]): completely inhibited | KI (inactivation) (DPP9 [2]): 32.2 µM | kinact (DPP9 [2]): 0.000464 s⁻¹ | kinact/KI (DPP9 [2]): 14 M⁻¹ s⁻¹ | KI (inactivation) (human DPP8): 8.94 µM | kinact (human DPP8): 0.002 s⁻¹ | kinact/KI (human DPP8): 223 M⁻¹ s⁻¹
